In ChEMBL document CHEMBL4184120, “Target ROS to induce apoptosis and cell cycle arrest by 5,7-dimethoxy-1,4-naphthoquinone derivative” (Bioorg Med Chem Lett, 2018):

What was measured:
[1] = tested on: A549; experiment: Antiproliferative activity against human A549 cells after 48 hrs by MTT assay; type: functional, cell-based; details: A549, 48 h
[2] = tested on: NCI-H460; experiment: Antiproliferative activity against human NCI-H460 cells after 48 by hrs MTT assay; type: functional, cell-based
[3] = Redox potential of the compound in pH 7.4 PBS buffer assessed as oxidation potential at 0.4 mM by cyclic voltametry; type: physicochemical; details: pH 7.4, 400 µM
[4] = tested on: HeLa; experiment: Antiproliferative activity against human HeLa cells after 48 hrs by MTT assay; type: functional, cell-based
[5] = tested on: HL-60; experiment: Antiproliferative activity against human HL60 cells after 48 hrs by MTT assay; type: functional, cell-based; details: HL-60, 48 h
[6] = tested on: HepG2; experiment: Antiproliferative activity against human HepG2 cells after 48 hrs by MTT assay; type: functional, cell-based; details: HepG2, 48 h
[7] = Redox potential of the compound in pH 7.4 PBS buffer assessed as reduction potential at 0.4 mM by cyclic voltametry; type: physicochemical; details: pH 7.4, 400 µM
[8] = Redox potential of the compound in pH 7.4 PBS buffer assessed as half wave potential at 0.4 mM by cyclic voltametry; type: physicochemical; details: pH 7.4, 400 µM
[9] = tested on: K562; experiment: Antiproliferative activity against human K562 cells after 48 hrs by MTT assay; type: functional, cell-based; details: K562, 48 h
[10] = Selectivity index, ratio of IC50 for human WI38 cells to IC50 for human HL60 cells; type: toxicity; details: WI38 cells and HL60 cells, read-out: Ratio IC50
[11] = tested on: WI-38; experiment: Antiproliferative activity against human WI38 cells after 48 hrs by MTT assay; type: cell-based; details: WI-38, 48 h
[12] = tested on: HL-60; experiment: Cell cycle arrest in human HL60 cells assessed as accumulation at G2/M phase at 5 mM after 48 hrs by propidium iodide staining based assay (reference value: 2.68%); type: functional
[13] = tested on: HL-60; experiment: Induction of apoptosis in human HL60 cells assessed as early apoptotic cells at 5 mM after 48 hrs by Annexin V-FITC/propidium iodide staining based flow cytometry (reference value: 3.13%); type: functional
[14] = tested on: HL-60; experiment: Cell cycle arrest in human HL60 cells assessed as accumulation at S phase at 5 mM after 48 hrs by propidium iodide staining based assay (reference value: 46.44%); type: functional
[15] = tested on: HL-60; experiment: Induction of apoptosis in human HL60 cells assessed as late apoptotic cells at 5 mM after 48 hrs by Annexin V-FITC/propidium iodide staining based flow cytometry (reference value: 1.23%); type: functional
[16] = tested on: HL-60; experiment: Cell cycle arrest in human HL60 cells assessed as accumulation at G0/G1 phase at 5 mM after 48 hrs by propidium iodide staining based assay (reference value: 50.88%); type: functional

| SMILES | IC50 [1] | IC50 [2] | IC50 [4] | IC50 [5] | IC50 [6] | other results |
| --- | --- | --- | --- | --- | --- | --- |
| CCCCC1=C(O)C(=O)c2cc(OC)cc(OC)c2C1=O | 65.4 µM | > 100 µM | > 100 µM | > 100 µM | 95.9 µM | Activity [3]: -0.227 V; Activity [7]: -0.328 V; Activity [8]: -0.278 V |
| COc1ccc(CCC2=C(Cl)C(=O)c3cc(OC)cc(OC)c3C2=O)cc1 | 83.1 µM | > 100 µM | 29.3 µM | 15.3 µM | 37.1 µM | IC50 [9]: 19.2 µM; selectivity ratio [10]: 1.8; IC50 [11]: 26.8 µM |
| CCCCCCCCCCCCC1=C(O)C(=O)c2cc(OC)cc(OC)c2C1=O | > 100 µM | > 100 µM | > 100 µM | 86.7 µM | > 100 µM |  |
| COc1cc(OC)c2c(c1)C(=O)C(O)=C(CCc1ccc(N(CCCl)CCCl)cc1)C2=O | > 100 µM | > 100 µM | > 100 µM | 26.1 µM | 81.4 µM |  |
| O=c1[nH]cc(F)c(=O)[nH]1 [FLUOROURACIL] |  |  | 30.2 µM | 67.2 µM | 36.6 µM |  |
| COC1=C(CCC2CCCCC2)C(=O)c2c(OC)cc(OC)cc2C1=O | > 100 µM | 43.1 µM | 70.2 µM | 55.9 µM | 37.4 µM |  |
| COc1ccc(CCC2=C(O)C(=O)c3cc(OC)cc(OC)c3C2=O)cc1 | 82.4 µM | 97.5 µM | 72.8 µM | 93.1 µM | 60.7 µM |  |
| CCCCCCCCCCC1=C(O)C(=O)c2cc(OC)cc(OC)c2C1=O | > 100 µM | > 100 µM | > 100 µM | 95.5 µM | > 100 µM |  |
| CC(=O)N[C@@H](CS)C(=O)O [ACETYLCYSTEINE] |  |  |  |  |  | Activity [12]: 2.52%; Activity [13]: 1.56%; Activity [14]: 40.12%; Activity [15]: 2.43%; Activity [16]: 57.36% |
| COc1cc(OC)c2c(c1)C(=O)C(O)=C(CCC1CCCCC1)C2=O | 78.5 µM | 86.2 µM | 79.4 µM | 95.8 µM | 49.9 µM |  |
| COC1=C(CCc2ccc(OC)cc2)C(=O)c2c(OC)cc(OC)cc2C1=O | > 100 µM | 37.1 µM | 35 µM | 52 µM | 47.5 µM |  |
